Results as given in US20110015235A1, “NOVEL PHENYLETHYNYL DERIVATIVES OF 8-AZA-BICYCLO[3.2.1]OCTANE AND THEIR USE AS MONOAMINE NEUROT[…]-UPTAKE INHIBITORS” (NeuroSearch A/S, priority 2008, published 2011).
Where a name gives a salt, the structure may show the parent alone.

Legend:
Format in all cases: biochemical
[1] = system: dopamine (DA) reuptake in synaptosomes; test: Inhibition of 3H-DA reuptake in synaptosomes; settings: read-out: DA-uptake IC50
Procedure: (§1) Compounds were tested for their ability to inhibit the reuptake of the monoamine neurotransmitters dopamine (DA) noradrenaline (NA) and serotonine (5-HT) in synaptosomes as described in WO 97/16451 (NeuroSearch A/S).
(§2) The test values are given as IC50 (the concentration (μM) of the test substance which inhibits the specific binding of ^3H-DA, ^3H-NA, or ^3H-5-HT by 50%).

[2] = system: noradrenaline (NA) reuptake in synaptosomes; test: Inhibition of 3H-NA reuptake in synaptosomes; settings: read-out: NA-uptake IC50
Procedure: as §1, §2

[3] = system: serotonine (5-HT) reuptake in synaptosomes; test: Inhibition of 3H-5-HT reuptake in synaptosomes; settings: read-out: 5-HT-uptake IC50
Procedure: as §1, §2

CN1[C@@H]2CC[C@H]1C[C@H](Oc1ccc(C#Cc3ccccc3)cc1)C2 [Compound C1, exo-8-Methyl-3-(4-phenylethynyl-phenoxy)-8-aza-bicyclo[3.2.1]octane fumaric acid salt]
IC50 [1]: 24 nM
IC50 [2]: 79 nM
IC50 [3]: 720 nM
